From patent US9066990B2, “Preparation for restenosis prevention” (priority 2001, dated 2015) come the findings set out here.

The nature of this series: Solubility in the contrast agent or physiological NaCl solution.

With `CC(=O)O[C@H]1C(=O)[C@@]2(C)[C@H]([C@H](OC(=O)c3ccccc3)[C@]3(O)C[C@H](OC(=O)[C@H](O)[C@@H](NC(=O)c4ccccc4)c4ccccc4)C(C)=C1C3(C)C)[C@]1(OC(C)=O)CO[C@@H]1C[C@@H]2O` [paclitaxel, 4,10-β-diacetoxy-13-α-((2R,3S)-3-ben-zamido-2-hydroxy-3-phenylpropionyloxy)-2α-benzoyloxy-5-β, 20-epoxy-1,7-β-dihydroxy-11-taxene-9-one], the “appearance of preparation after mixing” value (4.2 mg paclitaxel in 0.5 ml of ethanol added at room temperature to 50 ml of 0.9% NaCl solution) is given as “becomes turbid immediately after mixing”. Further, the “particles under a microscope” value (4.2 mg paclitaxel in 50 ml of 0.9% NaCl solution) was “Large aggregations of fine particles” and the “particles under a microscope” value (7.6 mg paclitaxel in 50 ml Ultravist-370) is given as “No particles can be identified”. Moreover, under “7.6 mg paclitaxel in 0.5 mg of ethanol added at room temperature to 50 ml Ultravist-370”, the “appearance of solution after mixing” value is on record as “clear solution without any turbidity”. Besides, where the note is “7.6 mg paclitaxel in 50 ml Ultravist-370, room temperature”, the “stability of the solution” value was “remains stable for several days”.
